Test results taken from patent US20260124184A1, “ONCE DAILY ALDOSTERONE SYNTHASE INHIBITOR (R)-(+)-5-(P-CYANOPHENYL)-5,6,7,8-TETRAHYDROIMIDAZO[L,5-A]PYRIDINE” (priority 2022, published 2026).
Like-named read-outs stand apart in the source and are kept apart here.

Tested on: patients with primary aldosteronism
Description: A double-blind, randomized, Phase 2 trial was conducted between November 2019 and June 2022 at 11 centres in Italy, Switzerland and the Netherlands (NCT04007406). […] Patients requiring fixed-dose antihypertensive therapy continued treatment throughout the study; steroid therapies, β-adrenergic and renin-angiotensin-aldosterone system blockers were not permitted. At 14-day intervals, office blood pressures were recorded and blood samples were taken for measurement of steroid and peptide hormones and electrolytes at a central laboratory.
Plasma aldosterone and plasma renin concentration were measured centrally under GCP regulations using the Liaison® chemiluminescent immunoassay kit supplied by DiaSorin S.p.A. Italy. The system used specific monoclonal antibodies to prevent cross reactions with other major potential reactants in the serum samples. The monoclonal antibodies directed against specific epitopes of the renin molecule allowed accurate and sensitive quantification. The assays were performed according to the instructions provided by the manufacturer. […] The analytical sensitivity was <0.97 ng/ml. […] The analytical sensitivity was <0.53 IU/mL.

Substance: (R)-(+)-5-(p-cyanophenyl)-5,6,7,8-tetrahydroimidazolium[1,5-a]pyridine dihydrogen phosphate [dexfadrostat phosphate]
- plasma aldosterone concentration, mean (baseline aldosterone 400-600 pmol/L, 4 mg QD, Day 1 (baseline)): 433 pmol/L
- plasma aldosterone concentration, mean (baseline aldosterone 400-600 pmol/L, 4 mg QD, Day 14): 155 pmol/L
- plasma aldosterone concentration, mean (baseline aldosterone 400-600 pmol/L, 4 mg QD, Day 28): 100 pmol/L
- plasma aldosterone concentration, mean (baseline aldosterone 400-600 pmol/L, 4 mg QD, Day 42): 117 pmol/L
- plasma aldosterone concentration, mean (baseline aldosterone 400-600 pmol/L, 4 mg QD, Day 56): 141 pmol/L
- plasma aldosterone concentration, mean (baseline aldosterone 400-600 pmol/L, 4 mg QD, Day 70 (placebo withdrawal)): 425 pmol/L
- plasma aldosterone concentration, mean (baseline aldosterone 400-600 pmol/L, 8 mg QD, Day 1 (baseline)): 404 pmol/L
- plasma aldosterone concentration, mean (baseline aldosterone 400-600 pmol/L, 8 mg QD, Day 14): 70 pmol/L
- plasma aldosterone concentration, mean (baseline aldosterone 400-600 pmol/L, 8 mg QD, Day 28): 70 pmol/L
- plasma aldosterone concentration, mean (baseline aldosterone 400-600 pmol/L, 8 mg QD, Day 42): 47 pmol/L
- plasma aldosterone concentration, mean (baseline aldosterone 400-600 pmol/L, 8 mg QD, Day 56): 58 pmol/L
- plasma aldosterone concentration, mean (baseline aldosterone 400-600 pmol/L, 8 mg QD, Day 70 (placebo withdrawal)): 300 pmol/L
- plasma aldosterone concentration, mean (baseline aldosterone 400-600 pmol/L, 12 mg QD, Day 1 (baseline)): 431 pmol/L
- plasma aldosterone concentration, mean (baseline aldosterone 400-600 pmol/L, 12 mg QD, Day 14): 63 pmol/L
- plasma aldosterone concentration, mean (baseline aldosterone 400-600 pmol/L, 12 mg QD, Day 28): 132 pmol/L
- plasma aldosterone concentration, mean (baseline aldosterone 400-600 pmol/L, 12 mg QD, Day 42): 142 pmol/L
- plasma aldosterone concentration, mean (baseline aldosterone 400-600 pmol/L, 12 mg QD, Day 56): 61 pmol/L
- plasma aldosterone concentration, mean (baseline aldosterone 400-600 pmol/L, 12 mg QD, Day 70 (placebo withdrawal)): 297 pmol/L
- plasma aldosterone concentration, mean (baseline aldosterone 600-1000 pmol/L, 4 mg QD, Day 1 (baseline)): 728 pmol/L
- plasma aldosterone concentration, mean (baseline aldosterone 600-1000 pmol/L, 4 mg QD, Day 14): 186 pmol/L
- plasma aldosterone concentration, mean (baseline aldosterone 600-1000 pmol/L, 4 mg QD, Day 28): 248 pmol/L
- plasma aldosterone concentration, mean (baseline aldosterone 600-1000 pmol/L, 4 mg QD, Day 42): 114 pmol/L
- plasma aldosterone concentration, mean (baseline aldosterone 600-1000 pmol/L, 4 mg QD, Day 56): 250 pmol/L
- plasma aldosterone concentration, mean (baseline aldosterone 600-1000 pmol/L, 4 mg QD, Day 70 (placebo withdrawal)): 325 pmol/L
- plasma aldosterone concentration, mean (baseline aldosterone 600-1000 pmol/L, 8 mg QD, Day 1 (baseline)): 805 pmol/L
- plasma aldosterone concentration, mean (baseline aldosterone 600-1000 pmol/L, 8 mg QD, Day 14): 83 pmol/L
- plasma aldosterone concentration, mean (baseline aldosterone 600-1000 pmol/L, 8 mg QD, Day 28): 120 pmol/L
- plasma aldosterone concentration, mean (baseline aldosterone 600-1000 pmol/L, 8 mg QD, Day 42): 123 pmol/L
- plasma aldosterone concentration, mean (baseline aldosterone 600-1000 pmol/L, 8 mg QD, Day 56): 131 pmol/L
- plasma aldosterone concentration, mean (baseline aldosterone 600-1000 pmol/L, 8 mg QD, Day 70 (placebo withdrawal)): 423 pmol/L
- plasma aldosterone concentration, mean (baseline aldosterone 600-1000 pmol/L, 12 mg QD, Day 1 (baseline)): 912 pmol/L
- plasma aldosterone concentration, mean (baseline aldosterone 600-1000 pmol/L, 12 mg QD, Day 14): 123 pmol/L
- plasma aldosterone concentration, mean (baseline aldosterone 600-1000 pmol/L, 12 mg QD, Day 28): 104 pmol/L
- plasma aldosterone concentration, mean (baseline aldosterone 600-1000 pmol/L, 12 mg QD, Day 42): 85 pmol/L
- plasma aldosterone concentration, mean (baseline aldosterone 600-1000 pmol/L, 12 mg QD, Day 56): 82 pmol/L
- plasma aldosterone concentration, mean (baseline aldosterone 600-1000 pmol/L, 12 mg QD, Day 70 (placebo withdrawal)): 466 pmol/L
- plasma aldosterone concentration, mean (baseline aldosterone 1000-2500 pmol/L, 4 mg QD, Day 1 (baseline)): 2005 pmol/L
- plasma aldosterone concentration, mean (baseline aldosterone 1000-2500 pmol/L, 4 mg QD, Day 14): 816 pmol/L
- plasma aldosterone concentration, mean (baseline aldosterone 1000-2500 pmol/L, 4 mg QD, Day 28): 531 pmol/L
- plasma aldosterone concentration, mean (baseline aldosterone 1000-2500 pmol/L, 4 mg QD, Day 42): 629 pmol/L
- plasma aldosterone concentration, mean (baseline aldosterone 1000-2500 pmol/L, 4 mg QD, Day 56): 589 pmol/L
- plasma aldosterone concentration, mean (baseline aldosterone 1000-2500 pmol/L, 4 mg QD, Day 70 (placebo withdrawal)): 1393 pmol/L
- plasma aldosterone concentration, mean (baseline aldosterone 1000-2500 pmol/L, 8 mg QD, Day 1 (baseline)): 1080 pmol/L
- plasma aldosterone concentration, mean (baseline aldosterone 1000-2500 pmol/L, 8 mg QD, Day 14): 27 pmol/L
- plasma aldosterone concentration, mean (baseline aldosterone 1000-2500 pmol/L, 8 mg QD, Day 28): 57 pmol/L
- plasma aldosterone concentration, mean (baseline aldosterone 1000-2500 pmol/L, 8 mg QD, Day 42): 27 pmol/L
- plasma aldosterone concentration, mean (baseline aldosterone 1000-2500 pmol/L, 8 mg QD, Day 56): 27 pmol/L
- plasma aldosterone concentration, mean (baseline aldosterone 1000-2500 pmol/L, 8 mg QD, Day 70 (placebo withdrawal)): 395 pmol/L
- plasma aldosterone concentration, mean (baseline aldosterone 1000-2500 pmol/L, 12 mg QD, Day 1 (baseline)): 1410 pmol/L
- plasma aldosterone concentration, mean (baseline aldosterone 1000-2500 pmol/L, 12 mg QD, Day 14): 111 pmol/L
- plasma aldosterone concentration, mean (baseline aldosterone 1000-2500 pmol/L, 12 mg QD, Day 28): 74 pmol/L
- plasma aldosterone concentration, mean (baseline aldosterone 1000-2500 pmol/L, 12 mg QD, Day 42): 71 pmol/L
- plasma aldosterone concentration, mean (baseline aldosterone 1000-2500 pmol/L, 12 mg QD, Day 56): 349 pmol/L
- plasma aldosterone concentration, mean (baseline aldosterone 1000-2500 pmol/L, 12 mg QD, Day 70 (placebo withdrawal)): 1264 pmol/L
